Values after ≈ are worked out from the molar mass of the structure shown. Bounds are passed on as bounds.

Test in all cases: MIC, microplate Alamar blue assay (MABA)
Type in all cases: cell-based
In general terms: Resazurin is reduced to fluorescent resorufin, in cell work by metabolically active cells.

Assay [1] deals with M. tuberculosis FJ05195 (XDR clinical isolate). As to conditions: Mycobacterium tuberculosis, read-out: MIC M. tuberculosis FJ05195.
In assay [2] the test system is M. tuberculosis FJ05189 (MDR clinical isolate). As to conditions: Mycobacterium tuberculosis, read-out: MIC M. tuberculosis FJ05189.
The test system of assay [3] is M. tuberculosis FJ05120 (MDR clinical isolate). Conditions: Mycobacterium tuberculosis, read-out: MIC M. tuberculosis FJ05120.

For orientation: MIC means the least concentration at which growth counts as inhibited. Take `[H]/N=C(/N)N[C@H]1[C@H](O)[C@@H](O)[C@H](O[C@@H]2O[C@@H](C)[C@](O)(C=O)[C@H]2O[C@@H]2O[C@@H](CO)[C@H](O)[C@@H](O)[C@@H]2NC)[C@@H](N/C(N)=N\[H])[C@@H]1O` [Streptomycin]: the MIC is greater than 128 µg/mL in assay [1], less than 0.06 µg/mL in assay [2] and less than 0.06 µg/mL in assay [3].

On to `CO[C@H]1/C=C/O[C@@]2(C)Oc3c(C)c(O)c4c(O)c(c(/C=N/N5CCN(C)CC5)c(O)c4c3C2=O)NC(=O)/C(C)=C\C=C\[C@H](C)[C@H](O)[C@@H](C)[C@@H](O)[C@@H](C)[C@H](OC(C)=O)[C@@H]1C` [Rifampicin], for which the MIC is greater than 128 µg/mL in assay [1], 4 µg/mL (≈ 4.86 µM) in assay [2] and greater than 128 µg/mL in assay [3].

Consider `CC[C@@H](CO)NCCN[C@@H](CC)CO` [Ethambutol], for which the MIC in assay [1] was greater than 128 µg/mL; in assay [2], 2 µg/mL (≈ 9.79 µM); in assay [3], 0.5 µg/mL (≈ 2.45 µM).

Consider `NNC(=O)c1ccncc1` [Isoniazid], for which the minimal inhibitory concentration (MIC) in assay [1] is greater than 128 µg/mL; in assay [2], 8 µg/mL (≈ 58.3 µM); in assay [3], 16 µg/mL (≈ 117 µM).
